The experiment has as its system P388 leukemia ip, CD2F1 mice, survival T/C. In words: NCI In Vivo Anticancer Drug Screen. Data for tumor model P388 Leukemia (intraperitoneal) in CD2F1 (CDF1) mice. Conditions: endpoint: median survival time, higher = longer survival. The essentials:
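Mice carrying the transplanted tumor received test compound or vehicle. Survival was recorded in each group, and the value is the treated-group measurement divided by that of the vehicle-treated control group.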

Where [1] appears, read: dose: 50.0 mg/kg/injection, schedule: Q01DX005 (ip), vehicle: saline with Tween-80.
The mark [2] stands for this setting: dose: 100.0 mg/kg/injection, schedule: Q01DX005 (ip), vehicle: saline with Tween-80.
The mark [3] stands for this setting: dose: 200.0 mg/kg/injection, schedule: Q01DX005 (ip), vehicle: saline with Tween-80.
The mark [4] stands for this setting: dose: 50.0 mg/kg/injection, schedule: Q01DX005 (ip), vehicle: Klucel (hydroxypropylcellulose) (HPC).
Setting [5] is: dose: 100.0 mg/kg/injection, schedule: Q01DX005 (ip), vehicle: Klucel (hydroxypropylcellulose) (HPC).
The mark [6] stands for this setting: dose: 200.0 mg/kg/injection, schedule: Q01DX005 (ip), vehicle: Klucel (hydroxypropylcellulose) (HPC).
[7] abbreviates: dose: 50.0 mg/kg/injection, schedule: Q01DX005 (ip), vehicle: saline.
The mark [8] stands for this setting: dose: 50.0 mg/kg/injection, schedule: Q01DX009 (ip), vehicle: Klucel (hydroxypropylcellulose) (HPC).
[9] abbreviates: dose: 100.0 mg/kg/injection, schedule: Q01DX009 (ip), vehicle: Klucel (hydroxypropylcellulose) (HPC).
Where [10] appears, read: dose: 200.0 mg/kg/injection, schedule: Q01DX009 (ip), vehicle: Klucel (hydroxypropylcellulose) (HPC).
Where [11] appears, read: dose: 60.0 mg/kg/injection, schedule: Q01DX005 (ip), vehicle: saline with Tween-80.
Where [12] appears, read: dose: 120.0 mg/kg/injection, schedule: Q01DX005 (ip), vehicle: saline with Tween-80.
Where [13] appears, read: dose: 240.0 mg/kg/injection, schedule: Q01DX005 (ip), vehicle: saline with Tween-80.
The mark [14] stands for this setting: dose: 100.0 mg/kg/injection, schedule: Q01DX001 (ip), vehicle: saline with Tween-80.

Molecules are shown by their SMILES. Values joined by “and” are separate entries in the source; they are usually repeats but may differ in a detail not shown here. Identical values can stand only once. Toxic doses and inconclusive results are not listed.

Consider `COC(=O)N1C=CC2ON=C(OC)C2C1c1ccccc1` (stereo not drawn), for which the T/C is 98 % of control under setting [1], 98 % of control under setting [2] and 101 % of control under setting [3].

On to `[B-][N+](C)(C)C`, for which the T/C reads like this: under setting [1], 98 % of control; under setting [2], 98 % of control.

As to `CC(=O)OCC(OC(C)=O)C(OC(C)=O)C(OC1OC(COC(C)=O)C(OC(C)=O)C(OC(C)=O)C1OC(C)=O)C(COC(C)=O)OC(C)=O` (stereo not drawn), the T/C is 97 % of control (dose: 50.0 mg/kg/injection, schedule: Q01DX005 (ip), vehicle: suspension in saline); 91 % of control (dose: 100.0 mg/kg/injection, schedule: Q01DX005 (ip), vehicle: suspension in saline); 99 % of control (dose: 200.0 mg/kg/injection, schedule: Q01DX005 (ip), vehicle: suspension in saline).

`CC(Br)CCc1ccccc1Br` (stereo not drawn): the T/C was 101 % of control under setting [4], 93 % of control under setting [5] and 97 % of control under setting [6].

In the case of `CCN(CC)CCNc1cccc2c(SC)ccnc12`, the T/C is 101 % of control under setting [1], 104 % of control under setting [2] and 101 % of control under setting [3].

Regarding `COCC1OC1COC` (stereo not drawn), the T/C is 107 % of control under setting [7]; 104 % of control (dose: 100.0 mg/kg/injection, schedule: Q01DX005 (ip), vehicle: saline); 106 % of control (dose: 200.0 mg/kg/injection, schedule: Q01DX005 (ip), vehicle: saline).

As to `CC1N=NNN1C` (stereo not drawn), the T/C by setting is: under setting [1], 109 % of control; under setting [2], 109 % of control; under setting [3], 100 % of control.

On to `NC(=O)N/N=C/Cn1ccc(=O)n(C/C=N/NC(N)=O)c1=O`, for which the T/C reads like this: under setting [4], 91 % of control; under setting [5], 87 % of control; under setting [6], 87 % of control.

Take `CC(C)(S)C(N)C(=O)O` (stereo not drawn): the T/C was 98 % of control under setting [8], 105 % of control under setting [9] and 94 % of control under setting [10].

For `Cc1cc2c(c(=O)o1)C1(C)CC(C)(O2)c2c(cc(C)oc2=O)O1`, the T/C was 99 % of control under setting [11], 95 % of control under setting [12] and 89 % of control under setting [13].

Consider `CCOC(=O)Nc1cc2c(c(N)n1)N=C(c1ccc(OC)cc1)CN2`, for which the T/C by setting is: (dose: 1.5 mg/kg/injection, schedule: Q01DX009 (ip), vehicle: Klucel (hydroxypropylcellulose) (HPC)) 105 % of control; (dose: 6.25 mg/kg/injection, schedule: Q01DX001 (ip), vehicle: Klucel (hydroxypropylcellulose) (HPC)) 110 % of control; (dose: 6.25 mg/kg/injection, schedule: Q04DX003 (ip), vehicle: Klucel (hydroxypropylcellulose) (HPC)) 110 % of control; (dose: 12.5 mg/kg/injection, schedule: Q04DX003 (ip), vehicle: Klucel (hydroxypropylcellulose) (HPC)) 158 % of control; (dose: 25.0 mg/kg/injection, schedule: Q01DX001 (ip), vehicle: Klucel (hydroxypropylcellulose) (HPC)) 150 % of control; (dose: 25.0 mg/kg/injection, schedule: Q04DX003 (ip), vehicle: Klucel (hydroxypropylcellulose) (HPC)) 163 % of control.

In the case of `O=c1c(O)cc2c(O)oc3c(=O)c(O)c(O)c4c(O)oc1c2c43`, the T/C was 114 % of control and 97 % of control (dose: 25.0 mg/kg/injection, schedule: Q01DX009 (ip), vehicle: suspension in saline); 111 % of control and 97 % of control (dose: 50.0 mg/kg/injection, schedule: Q01DX009 (ip), vehicle: suspension in saline); 112 % of control and 98 % of control (dose: 100.0 mg/kg/injection, schedule: Q01DX009 (ip), vehicle: suspension in saline); 103 % of control and 114 % of control (dose: 200.0 mg/kg/injection, schedule: Q01DX009 (ip), vehicle: suspension in saline).

Turning to `O=C1c2ccccc2CC12OC2c1ccccc1` (stereo not drawn), the T/C by setting is: (dose: 25.0 mg/kg/injection, schedule: Q01DX009 (ip), vehicle: Klucel (hydroxypropylcellulose) (HPC)) 96 % of control; under setting [8], 92 % of control; under setting [9], 92 % of control; under setting [10], 89 % of control; (dose: 400.0 mg/kg/injection, schedule: Q01DX009 (ip), vehicle: Klucel (hydroxypropylcellulose) (HPC)) 92 % of control.

Take `CCCCCCCCCCCCCCCCS(=O)(=O)N/N=C(/c1ccc(OC)c(OC)c1)N1CCCCC1`: the T/C (dose: 50.0 mg/kg/injection, schedule: Q01DX009 (ip), vehicle: other) is 102 % of control; the T/C (dose: 100.0 mg/kg/injection, schedule: Q01DX009 (ip), vehicle: other) is 91 % of control; the T/C (dose: 200.0 mg/kg/injection, schedule: Q01DX009 (ip), vehicle: other) was 93 % of control.

With `O=[N+]([O-])C1C(O)CSCC1O` (stereo not drawn), the T/C reads like this: under setting [14], 104 % of control; (dose: 200.0 mg/kg/injection, schedule: Q01DX001 (ip), vehicle: saline with Tween-80) 104 % of control; (dose: 400.0 mg/kg/injection, schedule: Q01DX001 (ip), vehicle: saline with Tween-80) 107 % of control.

For the compound `OC(C[n+]1ccccc1)c1ccc2c(c1)OCO2` (stereo not drawn), the T/C is, setting by setting: under setting [1], 106 % of control; under setting [2], 97 % of control.

As to `O=C(Nc1ccc(C(=O)c2ccccc2)cc1)Nc1ccc(Cl)c(Cl)c1`, the T/C is, setting by setting: (dose: 15.0 mg/kg/injection, schedule: Q01DX005 (ip), vehicle: Klucel (hydroxypropylcellulose) (HPC)) 93 % of control; (dose: 30.0 mg/kg/injection, schedule: Q01DX005 (ip), vehicle: Klucel (hydroxypropylcellulose) (HPC)) 96 % of control; (dose: 60.0 mg/kg/injection, schedule: Q01DX005 (ip), vehicle: Klucel (hydroxypropylcellulose) (HPC)) 89 % of control; (dose: 240.0 mg/kg/injection, schedule: Q01DX005 (ip), vehicle: Klucel (hydroxypropylcellulose) (HPC)) 86 % of control.

On to `OC(/C=C/c1ccccc1)Cc1nc2ccccc2[nH]1` (stereo not drawn), for which the T/C under setting [11] was 98 % of control and the T/C under setting [12] was 88 % of control.

Take `Cc1ccc(NCCNCC(O)CO)c2c(=O)c3ccccc3sc12` (stereo not drawn): the T/C was 109 % of control (dose: 12.5 mg/kg/injection, schedule: Q01DX005 (ip), vehicle: Klucel (hydroxypropylcellulose) (HPC)); 118 % of control (dose: 25.0 mg/kg/injection, schedule: Q01DX005 (ip), vehicle: Klucel (hydroxypropylcellulose) (HPC)); 151 % of control under setting [7].

With `OC(Cc1nc2ccccc2s1)(C(F)(F)F)C(F)(F)F`, the T/C (dose: 100.0 mg/kg/injection, schedule: Q04DX003 (ip), vehicle: saline with Tween-80) is 100 % of control; the T/C (dose: 200.0 mg/kg/injection, schedule: Q04DX003 (ip), vehicle: saline with Tween-80) is 95 % of control; the T/C (dose: 400.0 mg/kg/injection, schedule: Q04DX003 (ip), vehicle: saline with Tween-80) is 95 % of control.

For `C1CNP2(=NP(N3CC3)(N3CC3)=NP(N3CC3)(N3CC3)=N2)N1`, the T/C by setting is: (dose: 12.5 mg/kg/injection, schedule: Q01DX001 (ip), vehicle: saline with Tween-80) 108 % of control; (dose: 25.0 mg/kg/injection, schedule: Q01DX001 (ip), vehicle: saline with Tween-80) 108 % of control; under setting [14], 156 % of control.

As for `CC(=O)c1cc(Cl)ccc1OCC(O)CNc1ccc(Cl)cc1C(=O)c1ccccc1` (stereo not drawn), the T/C is, setting by setting: under setting [11], 90 % of control; under setting [12], 92 % of control; under setting [13], 86 % of control.

In the case of `O=C(CCC(=O)Nc1cc(Cl)ccc1Cl)CC(=O)c1ccc(Cl)cc1`, the T/C was 109 % of control (dose: 60.0 mg/kg/injection, schedule: Q01DX005 (ip), vehicle: saline); 106 % of control (dose: 120.0 mg/kg/injection, schedule: Q01DX005 (ip), vehicle: saline); 109 % of control (dose: 240.0 mg/kg/injection, schedule: Q01DX005 (ip), vehicle: saline).

Take `CCOC(=O)NCNC(=O)OCC`: the T/C reads like this: under setting [8], 100 % of control; under setting [9], 102 % of control; (dose: 100.0 mg/kg/injection, schedule: Q04DX002 (ip), vehicle: Klucel (hydroxypropylcellulose) (HPC)) 117 % of control; (dose: 200.0 mg/kg/injection, schedule: Q04DX002 (ip), vehicle: Klucel (hydroxypropylcellulose) (HPC)) 107 % of control; (dose: 400.0 mg/kg/injection, schedule: Q04DX002 (ip), vehicle: Klucel (hydroxypropylcellulose) (HPC)) 110 % of control.

The record behind these values is PubChem BioAssay AID330 (DTP/NCI, 2004).
